# Key:
# Assay type in all cases: cell-based
# [1] = target: T1, KRAS G12V protein in SW900 cells (Homo sapiens, UniProt P01116, G12V); assay: KRAS degradation assay (Western Blot) in SW900 cells; conditions: 24 h
# T1 construct: endogenous in cells; host or cells: SW900
# Description: (§1) Test Example 5: KRAS G12C, KRAS G12D, KRAS G12V, KRAS G13D, and KRAS WT (Expanded) Degradation Assays
# (§2) The degradation effect of the compounds on KRAS was investigated on KRAS G12C mutant human non-small cell lung cancer cell NCI-H358, KRAS G12D mutant human metastatic pancreatic cancer cell AsPc-1, KRAS G12D mutant human lung cancer cell A427, KRAS G12V mutant human colorectal cancer cell SW620, KRAS G12V mutant human lung cancer cell SW900, KRAS G13D mutant human colorectal cancer epithelial cell DLD-1, and KRAS WT human gastric cancer cell MKN-1. The specific procedures were as follows: 0.95 mL of cells were seeded into each well of a 24-well cell culture plate to achieve a cell density of 5×10^5 cells/well; and the cell plate was incubated in an incubator at 37° C. with 5% CO2 overnight. Then 50 μL of the compound solution after dilution was added to each of the wells with the corresponding cells, so that the final concentration of the compound was in a range of 0.03-3000 nM. The final concentration of DMSO was 0.25%. After the compounds were added, the cell plate was incubated in an incubator at 37° C. with 5% CO2 for 24 h. The culture medium in the 24-well cell culture plate was then removed, and the plate was washed twice with 1×PBS (KeyGEN). 120 μL of RIPA (strong) lysis buffer (Beyotime) (supplemented with 1 mM phenylmethylsulfonyl fluoride, a protease inhibitor mixture (Beyotime), and a protease phosphatase inhibitor mixture (Beyotime)) was added to lyse adherent SW900 cells at the bottom of the cell culture plate. After the plate was left to stand on ice for 30 min, the protein lysate in each well was transferred to a 1.5 mL centrifuge tube and centrifuged at 15000 g for 20 min at 4° C. The cell lysate supernatants after centrifugation were cryopreserved in a refrigerator at −80° C. for later use.
# (§3) After the samples of the cell lysate supernatants that had been prepared were thawed from the refrigerator at −80° C., the total protein concentrations of the cell lysates were determined using a BCA protein quantification kit (Tiangen). The total protein concentrations of the samples were then adjusted to 0.5 μg/μL with PBS and 5×SDS-PAGE protein loading buffer (Beyotime), and the samples were incubated in a water bath at 100° C. for 15 min. The samples were then incubated in an ice bath for 5 min and centrifuged at 14000 g for 1 min at 4° C., and the supernatants were mixed well as loading samples for the Western Blot assay. The samples were loaded into wells of a 10% precast gel (KeyGEN) with a loading volume of 10 μL (total protein: 5 μg), a sufficient Tris-MOPS-SDS running buffer (Adamas) was added, and then electrophoresis was performed at a constant voltage of 120 V for 55 min. After the electrophoresis, the proteins on the gel were transferred to PVDF membranes at a constant current of 250 mA for 55 min. After the membrane transfer, the PVDF membranes were incubated in 1× Quick Block blocking buffer (Beyotime)at room temperature for 30 min. After the blocking, the PVDF membranes were separately incubated at 4° C. overnight with the KRAS antibody (Abcam) diluted in a ratio of 1:1000 and the β-actin antibody (Abcam) diluted in a ratio of 1:2000 in 5% BSA as the diluent, and then washed with 1×TBST buffer (2.4 g of Tris, 8.8 g of NaCl, 1.5 mL of Tween 20, with pH adjusted to 7.4, with the volume brought to 1 L) 3 times for 10 min/time. The membranes were incubated with a secondary antibody (Abcam) diluted in 5% BSA at room temperature for 2 h, and then washed with 1×TBST buffer 3 times for 10 min/time. Finally, the membranes were incubated with Clarity Western ECL Substrate (BIO-RAD) for 5 min for luminescence and color development, and a ChemiScope 6200 Touch chemiluminescence imaging system (Clinx) was used for color development and protein mapping. Gray value analysis of the protein maps was performed using the chemiluminescence analysis software (Clinx). […]
# [2] = target: T2, KRAS G12V protein in SW620 cells (Homo sapiens, UniProt P01116, G12V); assay: KRAS degradation assay (Western Blot) in SW620 cells; conditions: for DC50: 24 h; for Dmax: SW-620, 24 h
# T2 construct: endogenous in cells; host or cells: SW620
# T2 sequence (P01116 1-188 isoform P01116-2 G12V): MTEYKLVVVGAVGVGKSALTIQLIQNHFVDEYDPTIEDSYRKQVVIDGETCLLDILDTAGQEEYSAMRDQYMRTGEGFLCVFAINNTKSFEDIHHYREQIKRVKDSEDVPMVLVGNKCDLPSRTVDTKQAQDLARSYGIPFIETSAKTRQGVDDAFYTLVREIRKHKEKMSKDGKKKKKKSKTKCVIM
# Description: as §1, §2, §3
# [3] = system: KRAS G12D mutant human metastatic pancreatic cancer cell AsPc-1; assay: 3D cell proliferation inhibition assay, AsPc-1; conditions: ASPC1, 168 h, 3D culture, 7 days, CTG
# Description: (§4) Test Example 6: 3D Cell Proliferation Inhibition Assay
# (§5) The inhibitory effects of the compounds on 3D cell proliferation were investigated on KRAS G12C mutant human non-small cell lung cancer cell NCI-H358, KRAS G12D mutant human lung cancer cell A427, KRAS G12D mutant human gastric cancer cell AGS, KRAS G12D mutant human metastatic pancreatic cancer cell AsPc-1, KRAS G12V mutant human lung squamous carcinoma cell SW900, KRAS G12V mutant human colorectal cancer cell SW620, KRAS G13D mutant human colorectal cancer epithelial cell DLD-1, and KRAS WT human gastric cancer cell MKN1. The specific procedures were as follows:
# (§6) 10 μL of each compound solution diluted in a gradient was added to corresponding wells of a 96-well low-adsorption microplate (PerkinElmer), so that the final concentrations of the test compounds in the reaction system were in a range of 10000-0.026 nM. The final concentration of DMSO was 0.2%. Then 90 µL of cells were correspondingly seeded into each well to achieve a cell density of 5×10^2 cells/well (the cell density of SW900 was 5×10^3 cells/well, and the cell density of MKN1 was 1×10^3 cells/well). In addition to test wells for the test compounds, both a DMSO control well and a medium control well were set, with the DMSO control well containing DMSO and cells and the medium well containing only a medium. After the sample loading, the 96-well low-adsorption microplate was incubated in an incubator at 37° C. with […] for 7 days. After 7 days, the microplate was taken out, and 100 μL of CTG reagent (Promega) was added to each well. The plate was incubated at room temperature for 60 m and read on a microplate reader EnVision by the chemiluminescence program. The inhibition rates of the compounds at each concentration were calculated using the formula for the percentage inhibition of cell proliferation: inhibition rate 00=(mean value of DMSO control group−single concentration reading value of compound)/(mean value of DMSO control group−mean value of medium control group)×100. Then non-linear curve fillings for logarithmic concentration-inhibition rate were performed by GraphPad Prism 8, and the IC50 values of the compounds were obtained (Table 6).
# [4] = system: KRAS G12C mutant human non-small cell lung cancer cell NCI-H358; assay: 3D cell proliferation inhibition assay, NCI-H358; conditions: NCI-H358, 168 h, 3D culture, 7 days, CTG
# Description: as §4, §5, §6
# [5] = system: KRAS G12V mutant human colorectal cancer cell SW620; assay: 3D cell proliferation inhibition assay, SW620; conditions: SW-620, 168 h, 3D culture, 7 days, CTG
# Description: as §4, §5, §6
# [6] = system: KRAS G13D mutant human colorectal cancer epithelial cell DLD-1; assay: 3D cell proliferation inhibition assay, DLD-1; conditions: DLD-1, 168 h, 3D culture, 7 days, CTG
# Description: as §4, §5, §6
# T1 sequence (P01116 1-188 isoform P01116-2 G12V): as above
SMILES,DC50 [1] [nM],Dmax [1] [%],DC50 [2] [nM],Dmax [2] [%],IC50 [3] [nM],IC50 [4] [nM],IC50 [5] [nM],IC50 [6] [nM]
"C#Cc1c(F)ccc2cc(O)cc(-c3ncc4c(N5CCC[C@@](C)(O)C5)nc(OCC5(CN6CCC(CN(C)CCC7CCN(C(=O)c8ccc(Cl)c(N9CCC(=O)NC9=O)c8)CC7)CC6)CC5)nc4c3F)c12 [Example 18, (R)-1-(2-chloro-5-(4-(2-(((1-((1-(((7-(8-ethynyl-7-fluoro-3-hydroxynaphthalen-1-yl)-8-fluoro-4-(3-hydroxy-3-methylpiperidin-1-yl)piperidino[4,3-d]pyrimidin-2-yl)oxy)methyl)cyclopropyl)methyl)piperidin-4-yl)methyl)(methyl)amino)ethyl)piperidine-1-carbonyl)phenyl)dihydropyrimidine-2,4(1H,3H)-dione]",100 to 500,50 to 80,,,,,,
"C#Cc1c(F)ccc2cc(O)cc(-c3ncc4c(NC5CC5)nc(OCC5(CN6CCN(CC7CCC8(CC7)CCN(C(=O)c7ccc(OC)c(N9CCC(=O)NC9=O)c7)CC8)CC6)CC5)nc4c3F)c12 [Example 31, 1-(5-(9-((4-((1-(((4-(cyclopropylamino)-7-(8-ethynyl-7-fluoro-3-hydroxynaphthalen-1-yl)-8-fluoropyrido[4,3-d]pyrimidin-2-yl)oxy)methyl)cyclopropyl)methyl)piperazin-1-yl)methyl)-3-azaspiro[5.5]undecane-3-carbonyl)-2-methoxyphenyl)dihydropyrimidine-2,4(1H,3H)-dione]",50 to 100,50 to 80,,,,,,
"C#Cc1c(F)ccc2cc(O)cc(-c3ncc4c(NC(C)(C)C)nc(OCC5(CN6CCN(CC7CCC8(CC7)CCN(C(=O)c7ccc(OC)c(N9CCC(=O)NC9=O)c7)CC8)CC6)CC5)nc4c3F)c12 [Example 32, 1-(5-(9-((4-((1-(((4-(tert-butylamino)-7-(8-ethynyl-7-fluoro-3-hydroxynaphthalen-1-yl)-8-fluoropyrido[4,3-d]pyrimidin-2-yl)oxy)methyl)cyclopropyl)methyl)piperazin-1-yl)methyl)-3-azaspiro[5.5]undecane-3-carbonyl)-2-methoxyphenyl)dihydropyrimidine-2,4(1H,3H)-dione]",≤ 50,50 to 80,,,,,,
"C#Cc1c(F)ccc2cc(O)cc(-c3ccc4c(N5CCC[C@@](C)(O)C5)nc(OC[C@H](C)CN5CCN(CC6CCC7(CC6)CCN(C(=O)c6ccc(OC)c(N8CCC(=O)NC8=O)c6)CC7)CC5)nc4c3F)c12 [Example 60, 1-(5-(9-((4-((R)-3-((7-(8-ethynyl-7-fluoro-3-hydroxynaphthalen-1-yl)-8-fluoro-4-((R)-3-hydroxy-3-methylpiperidin-1-yl)quinazolin-2-yl)oxy)-2-methylpropyl)piperazin-1-yl)methyl)-3-azaspiro[5.5]undecane-3-carbonyl)-2-methoxyphenyl)dihydropyrimidine-2,4(1H,3H)-dione]",,,4.25,99.1,60.8,24,15.4,57.5

# More lines, now with the values ahead:
DC50 [1] [nM],Dmax [1] [%],DC50 [2] [nM],Dmax [2] [%],IC50 [3] [nM],IC50 [4] [nM],IC50 [5] [nM],IC50 [6] [nM],SMILES
,,18.9,99.3,68.2,18.9,13.3,39.9,"C#Cc1c(F)ccc2cc(O)cc(-c3ccc4c(N5CCC[C@@](C)(O)C5)nc(OC[C@H](C)CN5CCN(CC6CCC7(CC6)CCN(C(=O)c6ccc(C)c(N8CCC(=O)NC8=O)c6)CC7)CC5)nc4c3F)c12 [Example 61, 1-(5-(9-((4-((R)-3-((7-(8-ethynyl-7-fluoro-3-hydroxynaphthalen-1-yl)-8-fluoro-4-((R)-3-hydroxy-3-methylpiperidin-1-yl)quinazolin-2-yl)oxy)-2-methylpropyl)piperazin-1-yl)methyl)-3-azaspiro[5.5]undecane-3-carbonyl)-2-methylphenyl)dihydropyrimidine-2,4(1H,3H)-dione]"
,,33.6,93.1,417,535,32.9,70.2,"C#Cc1c(F)ccc2cc(O)cc(-c3ncc4c(N5CCCC(F)(F)C5)nc(OC[C@H](C)CN5CCN(CC6CCC7(CC6)CCN(C(=O)c6ccc(OC)c(N8CCC(=O)NC8=O)c6)CC7)CC5)nc4c3F)c12 [Example 67, (R)-1-(5-(9-((4-(3-((4-(3,3-difluoropiperidin-1-yl)-7-(8-ethynyl-7-fluoro-3-hydroxynaphthalen-1-yl)-8-fluoropyrido[4,3-d]pyrimidin-2-yl)oxy)-2-methylpropyl)piperazin-1-yl)methyl)-3-azaspiro[5.5]undecane-3-carbonyl)-2-methoxyphenyl)dihydropyrimidine-2,4(1H,3H)-dione]"
,,,,523,,,,"C#Cc1c(F)ccc2cc(O)cc(-c3ncc4c(N5CCCC(C)(N)C5)nc(OCC5(CN6CCN(CC7CCC8(CC7)CCN(C(=O)c7ccc(C)c(N9CCC(=O)NC9=O)c7)CC8)CC6)CC5)nc4c3F)c12 (stereo not shown) [Example 166, 1-(5-(9-((4-((1-(((4-(3-amino-3-methylpiperidin-1-yl)-7-(8-ethynyl-7-fluoro-3-hydroxynaphthalen-1-yl)-8-fluoropyrido[4,3-d]pyrimidin-2-yl)oxy)methyl)cyclopropyl)methyl)piperazin-1-yl)methyl)-3-azaspiro[5.5]undecane-3-carbonyl)-2-methylphenyl)dihydropyrimidine-2,4(1H,3H)-dione]"
